Experimental data from US6699716B2, “In vivo induction for enhanced function of isolated hepatocytes” (priority 1999, dated 2004).

Tests used:
[1] = system: CYPIA1; assay: EROD conversion to resorufin by in vitro induced hepatocytes; assay type: cell-based, porcine
Method: (§1) For comparison, in vitro induced hepatocyte cultures were prepared. Hepatocytes were procured using the method described above but from non-induced pigs and then induced in culture. Cells were plated onto 60 mm tissue culture dishes (Corning, Corning, N.Y.) in Williams' E media supplemented with 1% NBCS (newborn calf serum), 4.5 g/L glucose, 0.5 U/ml bovine insulin, 7 ng/ml glucagon, 7.5 μg/ml hydrocortisone, 10 mM HEPES (Sigma), 20 ng/ml EGF, […] (Life Technologies), 10 IU/ml penicillin and 10 μ/ml streptomycin (BioWhittaker). Experimental conditions were treated with culture medium containing any one of the following: 2 mM phenobarbital (PB; Sigma) for 96 hours, 50 μM β-naphthoflavone (BNF; Sigma) for 24 hours, or 5 μM 3-methlycholanthrene (3-MC; Sigma) for 24 hours.
(§2) To measure increased isozyme activity in both in vivo and in vitro induced cultures compared to non-induced controls, both in vivo induced and in vitro induced cultures from Example 1 were incubated with EROD, MROD, PROD or BROD (Molecular Probes) at 5 μM (in Williams' E media without serum and phenol red). Dicumarol (80 μM, Sigma) was included in the incubation to limit cytosolic degradation of the resorufin end product. Samples were analyzed in a Turner 450 fluorometer at 540ex and 585em nm. Resorufin formation was quantified using a standard curve that was linear from 0.5 to 130 nM and data are expressed as net resorufin gain over background fluorescence. In this assay, conversion of the alkoxyresorufins to resorufin corresponds to an increase in fluorescence such that the ratio of fluorescences, or activity, corresponds directly to the level of P450 activity of a particular set of isoenzymes.

[2] = system: CYPIA1; assay: EROD conversion to resorufin by in vivo induced hepatocytes; parameters: species or system porcine; conditions: for Degree of isozyme activity increase over noninduced control: EROD substrate, hepatocytes induced in vivo, 10 to 15 mg/kg
Method: (§3) Cells were isolated using a modification of the Seglen method which has been described earlier (Seglen, P., Preparation of isolated rat liver cells, In Meth. in Cell. Bio. (D M Prescott, ed.), vol. 13. Academic Press (NY, N.Y.), 1976.). Briefly, the exposed liver was cannulated and perfused in situ with cold Lactated Ringers (Baxter, Deerfield, Ill.) at 250 ml/minute before excision and transport to the lab. The liver was quickly warmed and perfused with 0.2% EDTA at 37° C. This was followed by perfusion of 1 mg/ml collagenase (Life Technologies, Grand Island, N.Y.) at 37° C. until digestion appeared complete (mean digestion 22±4 min). Further digestion was stopped with the addition of cold HBSS (BioWhittaker, Walkersville, Md.) supplemented with 10% NBCS (Hyclone, Logan, Utah). Undigested tissue and gall bladder were excised and the remainder of the tissue passed through 200 and 100 micron stainless steel sieves (Fisher Scientific, Pittsburgh, Pa.). The cell suspension was washed twice and the cell pellet resuspended in culture media. Viability was determined by Trypan blue exclusion and Calcein AM staining (Molecular Probes, Eugene, Oreg.). Hepatocytes derived from the isolation process following in vivo induction show lower viability when compared to control conditions (77% n=7 versus 89% n=40), yet the cells detoxify xenobiotics at a greater rate. Immediately after isolation, 10^6 cells were assayed for total protein with the BCA kit (Pierce Biochemical, Rockford, Ill.).
Cells were plated onto 60 mm tissue culture dishes at a density of 2×10^6 cells per dish (Corning, Corning, N.Y.) in Williams' E media supplemented with 1% NBCS (newborn calf serum), 4.5 g/L glucose, 0.5 U/ml bovine insulin, 7 ng/ml glucagon, 7.5 μg/ml hydrocortisone, 10 mM HEPES (Sigma), 20 ng/ml EGF, […] (Life Technologies), 10 IU/ml penicillin and 10 μg/ml streptomycin (BioWhittaker). Hepatocytes were incubated at 37° C. in humidified 10% CO2. Culture medium was changed on day 1 post-isolation and then every 2-3 days. […]

[3] = system: CYPIA2; assay: MROD conversion to resorufin by in vivo induced hepatocytes; parameters: species or system porcine; conditions: for Degree of isozyme activity increase over noninduced control: MROD substrate, hepatocytes induced in vivo, 10 to 15 mg/kg
Method: as §2

[4] = system: CYPIA2; assay: MROD conversion to resorufin by in vitro induced hepatocytes; assay type: cell-based, porcine; conditions: in vitro induction 5 μM for 24 hours; two million hepatocytes, day 2 of culture
Method: as §1, with “Experimental conditions were treated with culture medium containing any one of the following: 2 mM phenobarbital (PB; Sigma) for 96 hours, 50 μM β-naphthoflavone (BNF; Sigma) for 24 hours, or 5 μM 3-methlycholanthrene (3-MC; Sigma) for 24 hours.” left out
as §2, with “Dicumarol (80 μM, Sigma) was included in the incubation to limit cytosolic degradation of the resorufin end product.” left out

[5] = system: CYPIIB1; assay: PROD conversion to resorufin by in vivo induced hepatocytes; parameters: species or system porcine; conditions: for Degree of isozyme activity increase over noninduced control: PROD substrate, hepatocytes induced in vivo
Method: as §3
(§4) Cells were plated onto 60 mm tissue culture dishes at a density of 2×10^6 cells per dish (Corning, Corning, N.Y.) in Williams' E media supplemented with 1% NBCS (newborn calf serum), 4.5 g/L glucose, 0.5 U/ml bovine insulin, 7 ng/ml glucagon, 7.5 μg/ml hydrocortisone, 10 mM HEPES (Sigma), 20 ng/ml EGF, […] (Life Technologies), 10 IU/ml penicillin and 10 μg/ml streptomycin (BioWhittaker). Hepatocytes were incubated at 37° C. in humidified 10% CO2. Culture medium was changed on day 1 post-isolation and then every 2-3 days. Media samples taken at each change were stored for assay of albumin and urea.

[6] = system: CYPIIB1; assay: Diazepam clearance by in vivo induced hepatocytes; parameters: species or system porcine
Method: as §3, with “Ill.). […]” for “Ill.).”
Diazepam clearance was assayed in the cultures of Example 1 using a method similar to that of Jauregui et al. Xenobiotic induction of P-450 PB-4 (IIB1) and P-450c (IA1) and associated monooxygenase activities in primary cultures of adult rat hepatocytes. […] This reverse phase HPLC run was conducted at a flow rate of 1.0 ml/min through a micro-Bondpak C18 column (Waters) with absorbance set at 254 nm. […]

[7] = system: CYPIIB1; assay: PROD conversion to resorufin by in vitro induced hepatocytes; assay type: cell-based, porcine
Method: as §1, with “Experimental conditions were treated with culture medium containing any one of the following: 2 mM phenobarbital (PB; Sigma) for 96 hours, 50 μM β-naphthoflavone (BNF; Sigma) for 24 hours, or 5 μM 3-methlycholanthrene (3-MC; Sigma) for 24 hours.” left out
as §2, with “Dicumarol (80 μM, Sigma) was included in the incubation to limit cytosolic degradation of the resorufin end product.” left out

[8] = system: CYPIA2; assay: 7-Ethoxycoumarin metabolism by in vivo induced hepatocytes; parameters: species or system porcine
[9] = system: CYPIIB2 and CYPIIB1 isozymes; assay: Maintenance of isozyme function four days after plating of in vivo induced hepatocytes; conditions: in vivo induced with 40 to 80 mg/kg once each day, 4 doses
Method: as §2

[10] = system: CYPIIB2; assay: BROD conversion to resorufin by in vivo induced hepatocytes; parameters: species or system porcine
Method: as §3, §4

[11] = system: CYPIA2; assay: Lidocaine clearance by in vivo induced hepatocytes; parameters: species or system porcine; conditions: Lidocaine substrate (clearance), 40 to 80 mg/kg
Method: A series of in vivo induction studies utilized various doses and injection regimes ranging from 40 to 80 mg/kg on days −4 to −1 with phenobarbital in PBS; 3-methlycholanthrene (in DMSO or benzene);or, β-naphthoflavone (in DMSO) given at 5 to 15 mg/kg on days −3, −2 and/or −1 prior to surgical removal of the liver. Yorkshire/Hampshire crossbred pigs weighing 8.3±3.0 kg were obtained from E M Parsons (Hadley, Mass.). All injections of induction agents were administered into the peritoneal cavity.
Cells were isolated using a modification of the Seglen method which has been described earlier (Seglen, P., Preparation of isolated rat liver cells, In Meth. in Cell. Bio. (D M Prescott, ed.), vol. 13. Academic Press (NY, N.Y.), 1976.). […] Viability was determined by Trypan blue exclusion and Calcein AM staining (Molecular Probes, Eugene, Oreg.). […]
Lidocaine (Paddock Laboratories Inc., Minneapolis, Minn.) clearance was assayed using a modification of the protocol of Nyberg et al. Pharmacokinetic analysis verifies P450function in in vitro and in vivo application of a bioartificial liver, ASAIO, 39:M252-M256, 1993. […] The reverse phase HPLC was carried out with a flow rate of 1 ml/minute on a Microsorb C8 column (Rainin Instrument Co., Woburn, Mass.) at room temperature and monitored at 214 nm. […]

[12] = system: CYPIIB2; assay: BROD conversion to resorufin by in vitro induced hepatocytes; assay type: cell-based, porcine
Method: as §1, with “Experimental conditions were treated with culture medium containing any one of the following: 2 mM phenobarbital (PB; Sigma) for 96 hours, 50 μM β-naphthoflavone (BNF; Sigma) for 24 hours, or 5 μM 3-methlycholanthrene (3-MC; Sigma) for 24 hours.” left out
as §2, with “Dicumarol (80 μM, Sigma) was included in the incubation to limit cytosolic degradation of the resorufin end product.” left out

[13] = three daily injections in vivo, day one of culture, 2x10^6 cells on 60 mm dish

Compound: O=c1cc(-c2ccccc2)oc2ccc3ccccc3c12 [Beta-Naphthoflavone, beta-naphthoflavone]
- increase in function over control metabolic conversion of EROD ([1]; in vitro induction 24 hours, 50 μM): 14.8 fold
- resorufin formed per minute ([1]; in vitro induction 24 hours, 50 μM, EROD, control 0.27 nM): 4.0 nM
- Degree of isozyme activity increase over noninduced control [2]: 2 to 10-fold
- Degree of isozyme activity increase over noninduced control [3]: 2 to 10-fold

Compound: Cc1ccc2cc3c(ccc4ccccc43)c3c2c1CC3 [3-Methylcholanthrene, 3-methylcholanthrene]
- conversion rate relative to control rate ([1]; in vitro induction 5 μM for 24 hours, two million hepatocytes, day 2 of culture): 18 fold
- conversion rate relative to control rate [4]: 4 fold
- Degree of isozyme activity increase over noninduced control ([5]; 10 to 15 mg/kg): 2 to 10-fold
- upregulation of CYPIIB1 (PROD) ([5]; in vivo administration): 8.4 fold
- Degree of isozyme activity increase over noninduced control [2]: 10 to 20-fold
- increase over noninduced controls ([2]; in vivo induction, EROD): 24 fold
- Degree of isozyme activity increase over noninduced control ([6]; Diazepam substrate (clearance), 10 to 15 mg/kg): 2 to 10-fold
- Degree of isozyme activity increase over noninduced control ([6]; Diazepam substrate (clearance), 10 to 15 mg/kg, listed as 3-methlycholanthrene): 2 to 10 fold
- Degree of isozyme activity increase over noninduced control [3]: 2 to 10-fold
- increase over noninduced controls ([3]; in vivo induction, MROD): 7.6 fold
- effect on CYPIIB1 (upregulation) ([7]; in vitro induction): not observed

Compound: CCC1(c2ccccc2)C(=O)NC(=O)NC1=O [Phenobarbital, phenobarbital]
- Degree of isozyme activity increase over noninduced control ([8]; 7-EC substrate, hepatocytes induced in vivo, 40 to 80 mg/kg): 20 to 50-fold
- umbelliferone production rate ([8]; in vivo induced, 24 hours after adding 7-ethoxycoumarin, noninduced 2.58±1.9): 346±41.4 nM per hour
- reduction of cytochrome P450 activity four days after plating [9]: about 50%
- Degree of isozyme activity increase over noninduced control ([10]; BROD substrate, hepatocytes induced in vivo, 40 to 80 mg/kg): 20 to 100-fold
- rate of resorufin formation from the BROD substrate ([10]; in vivo induction, day 1): approximately 10.4 nM resorufin per minute
- increase in function following in vivo induction [10, 13]: 70 fold
- rate relative to average control rate of resorufin formed on day 1 from BROD ([10]; versus control 0.15 nM per minute): 69 times
- Degree of isozyme activity increase over noninduced control ([5]; 40 to 80 mg/kg): 2 to 40-fold
- upregulation following in vivo induction [5, 13]: 38 fold
- Degree of isozyme activity increase over noninduced control ([6]; Diazepam substrate, 40 to 80 mg/kg): 20 to 50-fold
- higher rate of PROD metabolism following treatment ([7]; in vitro induction 96 hours (2 mM), PROD, 3 hours incubation): 3 fold
- Degree of isozyme activity increase over noninduced control [11]: 10 to 20-fold
- Degree of isozyme activity increase over noninduced control ([11]; listed as phenobarbital): 10 to 20 fold
- increase in function over noninduced controls ([12]; in vitro induction 96 hours (2 mM), BROD, 3 hours incubation, day 4 of culture): 8.4 fold
- rate of resorufin formation from the BROD substrate ([12]; in vitro induction, day 4): about 0.33 nM resorufin formed per minute
